The values below come from PubChem BioAssay (NCI).

Common to all, as to test: inhibition of tumour cell growth, NCI panel, 48 h
In assay [1] the test system is MCF7 breast.
Assay [2] relates to K-562 leukemia.
Assay [3] deals with SNB-75 CNS.
Assay [4] has as its system SK-OV-3 ovarian.
In assay [5] the test system is CAKI-1 renal.
Assay [6] concerns SK-MEL-5 melanoma.
For assay [7], the system named is MOLT-4 leukemia.
For assay [8], the system named is NCI-H226 lung.

Values joined by “and” are separate entries in the source; they are usually repeats but may differ in a detail not shown here. Equal entries are not always repeated.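 All cell lines were grown in 96-well plates and treated with compound for 48 hours. GI50 marks 50% less growth. TGI is the concentration that stops growth completely.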

Turning to `O=C(Nc1ccc(-c2ccnc(Nc3ccc(N4CCOCC4)cc3)n2)cc1)C1CCCN1` (stereo not given), the GI50 in assay [1] is 4.51 µM; in assay [2], 2 µM; in assay [3], 1.96 µM; in assay [4] it was 11.8 µM; in assay [5] it was 3.29 µM; in assay [6], 3.31 µM. For the same molecule, the GI50 in assay [7] was 3.04 µM; in assay [8], 6.69 µM. Also, the TGI is 21.4 µM in assay [1]; over 53.3 µM in assay [2]; 12.5 µM in assay [3]; 32.8 µM in assay [4]; 17.7 µM in assay [5]; 18.9 µM in assay [6]. The values for the TGI in assay [7] and in assay [8] were 33.2 µM and 52.5 µM, respectively.

`CN(C)CCNc1c2c(c(NCCN(C)C)c3c(CO)c[nH]c13)C(=O)c1ccccc1C2=O`: the GI50 in assay [1] is 1.97 µM; in assay [2], 3.47 µM; in assay [3] it was 6.38 µM; in assay [4], 4.64 µM; in assay [5] it was 4.64 µM; in assay [6], 1.81 µM. Besides, the GI50 was 0.371 µM in assay [7] and 7.37 µM in assay [8]. The TGI in assay [1] was over 34.1 µM; in assay [2] it was over 100 µM; in assay [3], 22.6 µM; in assay [4], 20.8 µM; in assay [5], 19.2 µM; in assay [6], 4.67 µM. The molecule also displayed a TGI in assay [8] of 26.3 µM.

As to `Cc1cc(Cl)ccc1NC(=O)NC(C)(C)COC(=O)Nc1cccc(Cl)c1`, the GI50 in assay [1] was 2.49 µM; in assay [2] it was 5.09 µM; in assay [3], 11.3 µM; in assay [4] it was 22.5 µM; in assay [5] it was 4.38 µM; in assay [6] it was 6.7 µM. For the same molecule, the GI50 was 6.19 µM in assay [7] and 13.6 µM in assay [8]. In addition, the TGI was 24.4 µM in assay [1]; over 100 µM in assay [2]; 47.1 µM in assay [3]; 96 µM in assay [4]; 75.3 µM in assay [5]; 25 µM in assay [6]. The TGI in assay [7] is 79 µM; in assay [8], over 100 µM.

`O[C@H](CN1CC1)[C@@H](O)CN1CC1`: the GI50 is 1.84 µM in assay [1]; 6.84 µM in assay [2]; 2.94 µM in assay [3]; 4.91 µM in assay [4]; 0.423 µM in assay [5]; 13.1 µM in assay [6]. The GI50 in assay [7] is 0.86 µM; in assay [8] it was 3.17 µM. For the same molecule, the TGI in assay [1] is over 100 µM; in assay [2] it was over 100 µM; in assay [3], 21.4 µM; in assay [4], 29.9 µM; in assay [5], 2.85 µM; in assay [6] it was 29.2 µM. Moreover, the values for the TGI in assay [7] and in assay [8] were over 100 µM and 26 µM, respectively.

Regarding `Cc1nc2sc(C(=O)Nc3cccc(Cl)c3C)c(N)c2cc1C(C)O` (stereo not given), the GI50 in assay [1] is 0.103 µM; in assay [2], 0.0459 µM; in assay [3], 0.097 µM; in assay [4], 0.382 µM; in assay [5], 0.334 µM; in assay [6] it was 0.26 µM. Further, the GI50 in assay [7] was 0.151 µM; in assay [8], 2.21 µM. Moreover, the TGI in assay [1] was over 53.2 µM; in assay [2], over 38.5 µM; in assay [3] it was over 42.1 µM; in assay [4] it was over 61 µM; in assay [5], over 100 µM; in assay [6] it was 15.6 µM. Besides, the results for the TGI in assay [7] and in assay [8] were over 42.7 µM and over 80.8 µM, respectively.

Take `CC(C)(O)CCC(O)C(C)(O)C1CCC2(O)C3=CC(=O)C4(O)CC(O)C(O)CC4(C)C3CCC12C` (stereo not given) (tested in a mixture with another compound): the TGI in assay [1], in assay [2], in assay [3], in assay [4], in assay [5] and in assay [6] was over 100 µM throughout. Further, the TGI in assay [7] and in assay [8] was over 100 µM throughout.

Take `O=C(Nc1cccc([N+](=O)[O-])c1)c1cc2ccccc2cc1O`: the GI50 in assay [1] is 1.36 µM; in assay [2] it was 0.845 µM; in assay [3], 2.84 µM; in assay [4] it was 1.84 µM; in assay [5], 1.16 µM; in assay [6], 1.14 µM. Moreover, the GI50 is 2.08 µM in assay [7] and 1.87 µM in assay [8]. The TGI in assay [1] worked out at 6.21 µM; in assay [2] it was 11 µM; in assay [3], 55.2 µM; in assay [4], 6.07 µM; in assay [5], 4.88 µM; in assay [6] it was 3.56 µM. Besides, the results for the TGI in assay [7] and in assay [8] were 6.24 µM and 7.43 µM, respectively.

For the molecule `COc1cc(N=Nc2cccc(S(N)(=O)=O)c2)c2ccccc2c1N`, the TGI turned out to be 20.5 µM in assay [1]; 37.7 µM in assay [2]; 4.56 µM in assay [3]; 30.7 µM in assay [4]; 20.8 µM in assay [5]; 3.3 µM in assay [6]. The TGI amounted to 25.2 µM in assay [7] and 39.7 µM in assay [8].

Consider `O=[N+]([O-])c1ccc(NC(=S)N/N=C(\c2ccccc2)c2ccccn2)cc1`, for which the GI50 in assay [1] is 0.0393 µM; in assay [2] it was 0.00498 µM; in assay [4] it was 2.28 µM; in assay [5], 1.36 µM; in assay [7] it was 0.00433 µM. The TGI was 1.55 µM and 2.75 µM in assay [1]; 2.41 µM and 3.82 µM in assay [2]; 3.76 µM in assay [3]; 4.09 µM and 2.95 µM in assay [4]; 3.02 µM and 2.97 µM in assay [5]; 2.53 µM and 2.74 µM in assay [6]. Also, the TGI in assay [7] was over 20.5 µM; in assay [8], 2.98 µM and 3.03 µM.

Take `C=C1C[C@@H]2[C@H](CC[C@]3(C)C(=O)CC[C@@H]23)[C@@]2(C)C=CC(=O)C=C12`: the GI50 in assay [1] is 14.6 µM; in assay [2], over 59.8 µM; in assay [3] it was 30 µM; in assay [4], 39.1 µM; in assay [5] it was over 55.9 µM; in assay [6] it was 7.5 µM. The GI50 in assay [7] is 25.7 µM; in assay [8] it was 20.2 µM. The TGI in assay [1] was over 62.2 µM; in assay [2], over 100 µM; in assay [3] it was over 100 µM; in assay [4], over 100 µM; in assay [5], over 100 µM; in assay [6] it was 33.7 µM. For the same molecule, the TGI in assay [7] was over 92.6 µM; in assay [8], over 60 µM.
